From patent US20230365537A1, “POLO LIKE KINASE 4 INHIBITORS” (ORIC Pharmaceuticals, Inc., priority 2021, published 2023)

What was measured:
[1] = target: human recombinant PLK4 (Homo sapiens (Human), UniProt O00444); assay: PLK4 Biochemical Assay (ADP-Glo); details: 0.5 nM PLK4, 8.0 µM ATP, 4.7 µM MBP, 6 hours at RT
Method in brief: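 Luminescent ADP-Glo detection quantified ADP production, with ATP depletion for 40 min and detection for 30 min at room temperature. Compound and PLK4 (1.0 nM stock addition) were preincubated 15 min in HEPES pH 7.5 buffer containing MgCl2, EGTA, DTT, Brij-35 and BSA. IC50 values were obtained by four-parameter nonlinear regression.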

[2] = target: human recombinant Aurora B (Homo sapiens (Human), UniProt Q96GD4); assay: Aurora B Kinase Biochemical Assay (ADP-Glo); details: ratio of Aurora B IC50 to PLK4 IC50 (selectivity)
Method in brief: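 IC50 derived by four-parameter nonlinear fit of ADP-Glo luminescence (ADP produced). Compound was preincubated 15 min at RT with 20 nM recombinant human Aurora B, in 50 mM HEPES pH 7.5, 10 mM MgCl2, 1 mM EGTA, 1 mM DTT, 0.01% Brij-35/BSA.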

[3] = tested on: CHP-134 cells; assay: CHP134 CellTiter-Glo (CTG) Assay; assay type: cell-based; details: Homo sapiens, CHP-134, 120 h, 5 days, viable cells by CellTiter-Glo
Method in brief: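 Nine-point 1:3 dilution series, diluted into growth media, added in quadruplicate to CHP-134 cells plated 16 h earlier at 200 cells/well.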

[4] = target: human recombinant Aurora A (Homo sapiens (Human), UniProt O14965); assay: Aurora A Kinase Biochemical Assay (ADP-Glo); details: ratio of Aurora A IC50 to PLK4 IC50 (selectivity)
Sequence of human recombinant Aurora A (O14965 whole entry): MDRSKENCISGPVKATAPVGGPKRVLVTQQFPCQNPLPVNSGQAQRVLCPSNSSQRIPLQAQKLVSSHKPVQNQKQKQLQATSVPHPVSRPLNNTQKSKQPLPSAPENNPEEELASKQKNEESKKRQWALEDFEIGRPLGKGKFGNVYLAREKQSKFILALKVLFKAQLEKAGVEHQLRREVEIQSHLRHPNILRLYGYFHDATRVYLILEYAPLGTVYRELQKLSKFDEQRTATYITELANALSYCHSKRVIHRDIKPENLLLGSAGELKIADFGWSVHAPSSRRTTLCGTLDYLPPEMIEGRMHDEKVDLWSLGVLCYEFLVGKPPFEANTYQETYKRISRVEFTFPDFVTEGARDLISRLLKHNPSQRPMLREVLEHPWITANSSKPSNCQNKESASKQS

Sequence of human recombinant PLK4 (O00444 whole entry): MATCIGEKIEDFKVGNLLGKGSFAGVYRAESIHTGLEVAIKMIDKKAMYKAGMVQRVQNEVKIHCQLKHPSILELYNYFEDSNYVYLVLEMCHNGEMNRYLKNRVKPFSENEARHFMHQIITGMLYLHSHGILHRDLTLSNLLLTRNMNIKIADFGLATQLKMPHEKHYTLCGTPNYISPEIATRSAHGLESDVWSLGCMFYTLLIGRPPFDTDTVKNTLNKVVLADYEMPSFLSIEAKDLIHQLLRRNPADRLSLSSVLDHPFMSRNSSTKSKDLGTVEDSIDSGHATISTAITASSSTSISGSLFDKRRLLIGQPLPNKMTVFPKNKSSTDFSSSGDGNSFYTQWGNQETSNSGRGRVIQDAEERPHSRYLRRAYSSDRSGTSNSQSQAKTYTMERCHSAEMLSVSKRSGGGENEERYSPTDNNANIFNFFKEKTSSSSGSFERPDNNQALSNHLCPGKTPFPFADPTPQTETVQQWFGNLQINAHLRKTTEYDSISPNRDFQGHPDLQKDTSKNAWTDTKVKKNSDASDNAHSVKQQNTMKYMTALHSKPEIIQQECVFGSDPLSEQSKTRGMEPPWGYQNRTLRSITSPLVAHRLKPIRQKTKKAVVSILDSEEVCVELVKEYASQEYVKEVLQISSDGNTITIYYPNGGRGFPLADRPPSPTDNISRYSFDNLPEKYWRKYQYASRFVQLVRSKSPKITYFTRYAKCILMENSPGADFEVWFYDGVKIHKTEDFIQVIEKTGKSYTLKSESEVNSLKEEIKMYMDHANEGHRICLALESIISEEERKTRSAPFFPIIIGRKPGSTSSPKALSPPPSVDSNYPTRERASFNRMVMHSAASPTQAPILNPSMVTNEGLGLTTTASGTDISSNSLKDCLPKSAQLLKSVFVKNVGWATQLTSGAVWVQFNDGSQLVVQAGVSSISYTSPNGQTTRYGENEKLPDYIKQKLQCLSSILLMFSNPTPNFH
Sequence of human recombinant Aurora B (Q96GD4 whole entry): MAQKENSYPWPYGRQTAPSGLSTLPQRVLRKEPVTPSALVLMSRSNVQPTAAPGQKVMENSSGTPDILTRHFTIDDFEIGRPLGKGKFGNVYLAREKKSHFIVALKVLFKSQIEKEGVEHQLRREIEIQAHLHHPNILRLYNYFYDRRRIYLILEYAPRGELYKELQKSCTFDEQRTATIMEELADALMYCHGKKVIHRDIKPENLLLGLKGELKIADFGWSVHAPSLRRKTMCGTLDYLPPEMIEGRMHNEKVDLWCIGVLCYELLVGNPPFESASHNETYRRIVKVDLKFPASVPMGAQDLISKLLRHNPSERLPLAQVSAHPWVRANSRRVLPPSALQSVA

IC50 [1] | [Aurora B IC50 (nM)]/[PLK4 IC50 (nM)] [2] | [Aurora A IC50 (nM)]/[PLK4 IC50 (nM)] [4] | Compound | IC50 [3]
0.89 nM | 138.7640 | 191.7977 | COc1ccc2c(c1)[C@]1(C[C@H]1c1ccc3c(Nc4ncc(S(=O)(=O)NC5(C)COC5)cc4OC)n[nH]c3c1)C(=O)N2 [Example 269, 5-methoxy-6-({6-[(1R,2S)-5′-methoxy-2′-oxo-1′,2′-dihydrospiro[cyclopropane-1,3′-indol]-2-yl]-1H-indazol-3-yl}amino)-N-(3-methyloxetan-3-yl)pyridine-3-sulfonamide] | 1350 nM
0.564 nM | 1790.7801 | 473.6 | COc1ccc2c(c1)[C@]1(C[C@H]1c1ccc3c(Nc4ncc(S(=O)(=O)N(C)C5(C)COC5)cc4OC)n[nH]c3c1)C(=O)N2 [Example 270, 5-methoxy-6-({6-[(1R,2S)-5′-methoxy-2′-oxo-1′,2′-dihydrospiro[cyclopropane-1,3′-indol]-2-yl]-1H-indazol-3-yl}amino)-N-methyl-N-(3-methyloxetan-3-yl)pyridine-3-sulfonamide] | 269 nM
0.833 nM | 448.8595 | 3273.7094 | CCOc1cc(S(C)(=O)=O)ccc1Nc1n[nH]c2cc([C@@H]3C[C@@]34C(=O)Nc3ccc(OC)cc34)ccc12 [Example 272, (1R,2S)-2-{3-[2-Ethoxy-4-(methanesulfonyl)anilino]-1H-indazol-6-yl}-5′-methoxyspiro[cyclopropane-1,3′-indol]-2′(1′H)-one] | 77.8 nM
1.45 nM | 2831.3833 | 3483.1383 | CCOc1cc(S(=O)(=O)N2CCN(C)CC2)cnc1Nc1n[nH]c2cc([C@@H]3C[C@@]34C(=O)Nc3ccc(OC)cc34)ccc12 [Example 273, (1R,2S)-2-(3-{[3-ethoxy-5-(4-methylpiperazine-1-salfonyl)pyridin-2-yl]amino)-1H-indazol-6-yl)-5′-methoxyspiro[cyclopropane-1,3′-indol]-2′(1′H)-one] | 1700 nM
0.763 nM | 961.3368 | 2560.9436 | CCOc1cc(S(=O)(=O)CC)cnc1Nc1n[nH]c2cc([C@@H]3C[C@@]34C(=O)Nc3ccc(OC)cc34)ccc12 [Example 274, (1R,2S)-2-(3-{[5-(Ethanesulfonyl)-3-ethoxypyridin-2-yl]amino}-1H-indazol-6-yl)-5′-methoxyspiro[cyclopropane-1,3′-indol]-2′(1′H)-one] | 72.3 nM
2.61 nM | 2173.2976 | 377.9648 | CCOc1cc(S(C)(=O)=O)cnc1Nc1n[nH]c2cc([C@@H]3C[C@@]34C(=O)Nc3ccc(Cl)cc34)ccc12 [Example 276, (1R,2S)-5′-chloro-2-(3-{[3-ethoxy-5-(methanesulfonyl)pyridin-2-yl]amino}-1H-indazol-6-yl)spiro[cyclopropane-1,3′-indol]-2′(1′H)-one] | 4080 nM
